This passage reports Volume and Acid output results from ChEMBL document CHEMBL1121467, “Prostaglandins and congeners. 25. Inhibition of gastric acid secretion. Replacement of the carboxylate moiety of a prostaglandin with a hydroxymethylketo functional group” (1980).

For test [1], the system named is Canis familiaris. The test is described as follows: Inhibition of gastric acid secretion (cumulative 75 min) in the dog fistula preparation was measured as total volume, after intragastric administration of 10 ug/kg. It is filed as functional, Canis lupus familiaris, Stomach.
Test [2] relates to Canis familiaris. The test is described as follows: Inhibition of gastric acid secretion (cumulative 75 min) in the dog fistula preparation was measured as acid output, after intragastric administration of 10 ug/kg. The format is functional, Canis lupus familiaris, Stomach.

For `CCCCC(C)(O)C/C=C/C1[C@H](O)CC(=O)[C@@H]1C/C=C/CCCC(=O)CO` (some centres undefined), the Volume in the test on Canis familiaris [1] is 76 mL. Besides, in the test with Canis familiaris [2], the Acid output turned out to be 7.5 m equiv [H+] l-1.

`CCCCC(C)(O)C/C=C/C1[C@H](O)CC(=O)[C@@H]1CCCCCCC(=O)CO` (some centres undefined) gave a Volume in the test with Canis familiaris [1] of 59 mL. The compound also came in with an Acid output with Canis familiaris [2] of 6.9 m equiv [H+] l-1.
